Laboratory results reported in ChEMBL document CHEMBL2069240, “Design, solvent free synthesis, and antimicrobial evaluation of 1,4 dihydropyridines” (2012).
≈ marks a conversion by molar mass, not a printed value.

Legend:
Escherichia coli [1] = assay: Antibacterial activity against Escherichia coli ATCC 25922; type: functional
Citrobacter koseri = assay: Antibacterial activity against Citrobacter koseri ATCC 27028; type: functional
Klebsiella pneumoniae [2] = assay: Antibacterial activity against Klebsiella pneumoniae ATCC 7761; type: functional
Salmonella typhi = assay: Antibacterial activity against Salmonella typhi ATCC 700931; type: functional, Salmonella enterica subsp. enterica serovar Typhi; conditions: Salmonella enterica
Shigella dysenteriae = assay: Antibacterial activity against Shigella dysenteriae ATCC 32412; type: functional
Pseudomonas aeruginosa = assay: Antibacterial activity against Pseudomonas aeruginosa ATCC 27853; type: functional
Staphylococcus aureus = assay: Antibacterial activity against Staphylococcus aureus ATCC 25923; type: functional
Enterococcus faecalis = assay: Antibacterial activity against Enterococcus faecalis ATCC 51299; type: functional
Bacillus subtilis = assay: Antibacterial activity against Bacillus subtilis ATCC 9372; type: functional
Streptococcus pyogenes = assay: Antibacterial activity against Streptococcus pyogenes ATCC 19615; type: functional
Escherichia coli [3] = assay: Antibacterial activity against ampicillin-resistant Escherichia coli clinical isolate; type: functional
Klebsiella pneumoniae [4] = assay: Antibacterial activity against ampicillin-resistant Klebsiella pneumoniae clinical isolate; type: functional
Escherichia coli [5] = assay: Ratio of ampicillin MIC to compound MIC for ampicillin-resistant Escherichia coli clinical isolate; type: functional
Klebsiella pneumoniae [6] = assay: Ratio of ampicillin MIC to compound MIC for ampicillin-resistant Klebsiella pneumoniae clinical isolate; type: functional

| Compound | MIC (Escherichia coli [1]) | MIC (Citrobacter koseri) | MIC (Klebsiella pneumoniae [2]) | MIC (Salmonella typhi) | MIC (Shigella dysenteriae) | MIC (Pseudomonas aeruginosa) | MIC (Staphylococcus aureus) | MIC (Enterococcus faecalis) | MIC (Bacillus subtilis) | MIC (Streptococcus pyogenes) | MIC (Escherichia coli [3]) | MIC (Klebsiella pneumoniae [4]) | Ratio (Escherichia coli [5]) | Ratio (Klebsiella pneumoniae [6]) |
| --- | --- | --- | --- | --- | --- | --- | --- | --- | --- | --- | --- | --- | --- | --- |
| CCOC(=O)C1=C(C)NC(C)=C(C(=O)OCC)C1c1ccccc1O | 250 µg/mL (≈ 724 µM) | 125 µg/mL (≈ 362 µM) | 125 µg/mL (≈ 362 µM) | 500 µg/mL (≈ 1450 µM) | 250 µg/mL (≈ 724 µM) | 250 µg/mL (≈ 724 µM) | 250 µg/mL (≈ 724 µM) | 250 µg/mL (≈ 724 µM) | 250 µg/mL (≈ 724 µM) | 250 µg/mL (≈ 724 µM) | 62.5 µg/mL (≈ 181 µM) | 31.2 µg/mL (≈ 90.5 µM) | 4 | 4 |
| CCOC(=O)C1=C(C)NC(C)=C(C(=O)OCC)C1c1ccc(O)cc1 | 2500 µg/mL (≈ 7240 µM) | 2500 µg/mL (≈ 7240 µM) | 2500 µg/mL (≈ 7240 µM) | 5000 µg/mL (≈ 14500 µM) | 5000 µg/mL (≈ 14500 µM) | 5000 µg/mL (≈ 14500 µM) | 2500 µg/mL (≈ 7240 µM) | 2500 µg/mL (≈ 7240 µM) | 2500 µg/mL (≈ 7240 µM) | 2500 µg/mL (≈ 7240 µM) | 125 µg/mL (≈ 362 µM) | 125 µg/mL (≈ 362 µM) | 4 | 4 |
| CC1(C)S[C@@H]2[C@H](NC(=O)[C@H](N)c3ccccc3)C(=O)N2[C@H]1C(=O)O [AMPICILLIN] | 200 µg/mL (≈ 572 µM) | 25 µg/mL (≈ 71.5 µM) | 500 µg/mL (≈ 1430 µM) | 5 µg/mL (≈ 14.3 µM) | 50 µg/mL (≈ 143 µM) | 2 µg/mL (≈ 5.72 µM) | 10 µg/mL (≈ 28.6 µM) | 15 µg/mL (≈ 42.9 µM) | 25 µg/mL (≈ 71.5 µM) | 0.06 µg/mL (≈ 0.172 µM) | > 2000 µg/mL | > 2000 µg/mL |  |  |
| CCOC(=O)C1=C(C)NC(C)=C(C(=O)OCC)C1c1cccc(O)c1 | 500 µg/mL (≈ 1450 µM) | 500 µg/mL (≈ 1450 µM) | 500 µg/mL (≈ 1450 µM) | 500 µg/mL (≈ 1450 µM) | 125 µg/mL (≈ 362 µM) | 1250 µg/mL (≈ 3620 µM) | 1250 µg/mL (≈ 3620 µM) | 1250 µg/mL (≈ 3620 µM) | 1250 µg/mL (≈ 3620 µM) | 1250 µg/mL (≈ 3620 µM) | 125 µg/mL (≈ 362 µM) | 62.5 µg/mL (≈ 181 µM) | 4 | 4 |
| CCOC(=O)C1=C(C)NC(C)=C(C(=O)OCC)C1c1cccc([N+](=O)[O-])c1 | 2500 µg/mL (≈ 6680 µM) | 2500 µg/mL (≈ 6680 µM) | 2500 µg/mL (≈ 6680 µM) | 1250 µg/mL (≈ 3340 µM) | 2500 µg/mL (≈ 6680 µM) | 5000 µg/mL (≈ 13400 µM) | 1250 µg/mL (≈ 3340 µM) | 2500 µg/mL (≈ 6680 µM) | 2500 µg/mL (≈ 6680 µM) | 2500 µg/mL (≈ 6680 µM) | 125 µg/mL (≈ 334 µM) | 125 µg/mL (≈ 334 µM) | 4 | 4 |
| CCOC(=O)C1=C(C)NC(C)=C(C(=O)OCC)C1c1ccc(Cl)cc1 | 125 µg/mL (≈ 344 µM) | 125 µg/mL (≈ 344 µM) | 125 µg/mL (≈ 344 µM) | 500 µg/mL (≈ 1370 µM) | 500 µg/mL (≈ 1370 µM) | 500 µg/mL (≈ 1370 µM) | 125 µg/mL (≈ 344 µM) | 125 µg/mL (≈ 344 µM) | 500 µg/mL (≈ 1370 µM) | 125 µg/mL (≈ 344 µM) | 62.5 µg/mL (≈ 172 µM) | 31.2 µg/mL (≈ 85.9 µM) | 4 | 4 |
| CCOC(=O)C1=C(C)NC(C)=C(C(=O)OCC)C1c1ccc(O)c(OC)c1 | 125 µg/mL (≈ 333 µM) | 125 µg/mL (≈ 333 µM) | 125 µg/mL (≈ 333 µM) | 125 µg/mL (≈ 333 µM) | 125 µg/mL (≈ 333 µM) | 125 µg/mL (≈ 333 µM) | 125 µg/mL (≈ 333 µM) | 125 µg/mL (≈ 333 µM) | 125 µg/mL (≈ 333 µM) | 125 µg/mL (≈ 333 µM) | 31.2 µg/mL (≈ 83.2 µM) | 31.2 µg/mL (≈ 83.2 µM) | 4 | 4 |
| CCOC(=O)C1=C(C)NC(C)=C(C(=O)OCC)C1c1ccc(OC)cc1 | 1250 µg/mL (≈ 3480 µM) | 1250 µg/mL (≈ 3480 µM) | 1250 µg/mL (≈ 3480 µM) | 5000 µg/mL (≈ 13900 µM) | 2500 µg/mL (≈ 6960 µM) | 5000 µg/mL (≈ 13900 µM) | 2500 µg/mL (≈ 6960 µM) | 2500 µg/mL (≈ 6960 µM) | 1250 µg/mL (≈ 3480 µM) | 2500 µg/mL (≈ 6960 µM) | 62.5 µg/mL (≈ 174 µM) | 125 µg/mL (≈ 348 µM) | 4 | 4 |
| CCOC(=O)C1=C(C)NC(C)=C(C(=O)OCC)C1c1ccccc1Cl | 250 µg/mL (≈ 687 µM) | 250 µg/mL (≈ 687 µM) | 250 µg/mL (≈ 687 µM) | 250 µg/mL (≈ 687 µM) | 250 µg/mL (≈ 687 µM) | 250 µg/mL (≈ 687 µM) | 125 µg/mL (≈ 344 µM) | 125 µg/mL (≈ 344 µM) | 250 µg/mL (≈ 687 µM) | 125 µg/mL (≈ 344 µM) | 125 µg/mL (≈ 344 µM) | 125 µg/mL (≈ 344 µM) | 4 | 4 |
| CCOC(=O)C1=C(C)NC(C)=C(C(=O)OCC)C1c1cc(OC)c(OC)c(OC)c1 | 2500 µg/mL (≈ 5960 µM) | 2500 µg/mL (≈ 5960 µM) | 2500 µg/mL (≈ 5960 µM) | 1250 µg/mL (≈ 2980 µM) | 1250 µg/mL (≈ 2980 µM) | 2500 µg/mL (≈ 5960 µM) | 1250 µg/mL (≈ 2980 µM) | 1250 µg/mL (≈ 2980 µM) | 1250 µg/mL (≈ 2980 µM) | 2500 µg/mL (≈ 5960 µM) | 250 µg/mL (≈ 596 µM) | 250 µg/mL (≈ 596 µM) | 4 | 4 |
| CCOC(=O)C1=C(C)NC(C)=C(C(=O)OCC)C1c1ccccc1 | 2500 µg/mL (≈ 7590 µM) | 2500 µg/mL (≈ 7590 µM) | 1250 µg/mL (≈ 3790 µM) | 2500 µg/mL (≈ 7590 µM) | 1250 µg/mL (≈ 3790 µM) | 1250 µg/mL (≈ 3790 µM) | 1250 µg/mL (≈ 3790 µM) | 2500 µg/mL (≈ 7590 µM) | 2500 µg/mL (≈ 7590 µM) | 2500 µg/mL (≈ 7590 µM) | 125 µg/mL (≈ 379 µM) | 125 µg/mL (≈ 379 µM) | 4 | 4 |
| CCOC(=O)C1=C(C)N=C(C)/C(=C(/O)OCC)C1 | 1250 µg/mL (≈ 4930 µM) | 1250 µg/mL (≈ 4930 µM) | 1250 µg/mL (≈ 4930 µM) | 2500 µg/mL (≈ 9870 µM) | 1250 µg/mL (≈ 4930 µM) | 1250 µg/mL (≈ 4930 µM) | 1250 µg/mL (≈ 4930 µM) | 1250 µg/mL (≈ 4930 µM) | 1250 µg/mL (≈ 4930 µM) | 1250 µg/mL (≈ 4930 µM) | 125 µg/mL (≈ 493 µM) | 62.5 µg/mL (≈ 247 µM) | 4 | 4 |
| CCOC(=O)C1=C(C)NC(C)=C(C(=O)OCC)C1c1cc(OC)ccc1OC | 500 µg/mL (≈ 1280 µM) | 250 µg/mL (≈ 642 µM) | 250 µg/mL (≈ 642 µM) | 500 µg/mL (≈ 1280 µM) | 500 µg/mL (≈ 1280 µM) | 2500 µg/mL (≈ 6420 µM) | 250 µg/mL (≈ 642 µM) | 250 µg/mL (≈ 642 µM) | 2500 µg/mL (≈ 6420 µM) | 250 µg/mL (≈ 642 µM) | 250 µg/mL (≈ 642 µM) | 125 µg/mL (≈ 321 µM) | 4 | 4 |
| CCOC(=O)C1=C(C)NC(C)=C(C(=O)OCC)C1c1ccc(OC)c(OC)c1 | 2500 µg/mL (≈ 6420 µM) | 2500 µg/mL (≈ 6420 µM) | 2500 µg/mL (≈ 6420 µM) | 1250 µg/mL (≈ 3210 µM) | 1250 µg/mL (≈ 3210 µM) | 1250 µg/mL (≈ 3210 µM) | 1250 µg/mL (≈ 3210 µM) | 1250 µg/mL (≈ 3210 µM) | 125 µg/mL (≈ 321 µM) | 1250 µg/mL (≈ 3210 µM) | 125 µg/mL (≈ 321 µM) | 125 µg/mL (≈ 321 µM) | 4 | 4 |
